The source of these data is ChEMBL document CHEMBL5291721, “A preclinical secondary pharmacology resource illuminates target-adverse drug reaction associations of marketed drugs” (Nat Commun, 2023).

Test [1] addresses 5-hydroxytryptamine receptor 2A (Homo sapiens, UniProt P28223).
For test [2], the target named is T1, 5-hydroxytryptamine receptor 1A (Homo sapiens, UniProt P08908).
T1 sequence (P08908 whole entry): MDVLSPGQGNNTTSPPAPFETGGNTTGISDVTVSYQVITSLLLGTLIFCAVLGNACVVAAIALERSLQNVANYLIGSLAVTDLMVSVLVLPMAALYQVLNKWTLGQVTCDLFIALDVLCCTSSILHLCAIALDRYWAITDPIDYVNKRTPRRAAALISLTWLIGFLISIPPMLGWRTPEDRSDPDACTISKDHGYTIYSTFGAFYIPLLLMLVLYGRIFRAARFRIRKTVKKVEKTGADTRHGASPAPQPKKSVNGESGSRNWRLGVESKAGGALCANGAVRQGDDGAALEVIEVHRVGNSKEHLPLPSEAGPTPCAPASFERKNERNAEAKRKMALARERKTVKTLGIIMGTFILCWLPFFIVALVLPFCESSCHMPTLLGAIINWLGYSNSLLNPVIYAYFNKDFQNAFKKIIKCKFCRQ

The target of test [3] is T2, Androgen receptor (Rattus norvegicus, UniProt P15207).
T2 sequence (P15207 whole entry): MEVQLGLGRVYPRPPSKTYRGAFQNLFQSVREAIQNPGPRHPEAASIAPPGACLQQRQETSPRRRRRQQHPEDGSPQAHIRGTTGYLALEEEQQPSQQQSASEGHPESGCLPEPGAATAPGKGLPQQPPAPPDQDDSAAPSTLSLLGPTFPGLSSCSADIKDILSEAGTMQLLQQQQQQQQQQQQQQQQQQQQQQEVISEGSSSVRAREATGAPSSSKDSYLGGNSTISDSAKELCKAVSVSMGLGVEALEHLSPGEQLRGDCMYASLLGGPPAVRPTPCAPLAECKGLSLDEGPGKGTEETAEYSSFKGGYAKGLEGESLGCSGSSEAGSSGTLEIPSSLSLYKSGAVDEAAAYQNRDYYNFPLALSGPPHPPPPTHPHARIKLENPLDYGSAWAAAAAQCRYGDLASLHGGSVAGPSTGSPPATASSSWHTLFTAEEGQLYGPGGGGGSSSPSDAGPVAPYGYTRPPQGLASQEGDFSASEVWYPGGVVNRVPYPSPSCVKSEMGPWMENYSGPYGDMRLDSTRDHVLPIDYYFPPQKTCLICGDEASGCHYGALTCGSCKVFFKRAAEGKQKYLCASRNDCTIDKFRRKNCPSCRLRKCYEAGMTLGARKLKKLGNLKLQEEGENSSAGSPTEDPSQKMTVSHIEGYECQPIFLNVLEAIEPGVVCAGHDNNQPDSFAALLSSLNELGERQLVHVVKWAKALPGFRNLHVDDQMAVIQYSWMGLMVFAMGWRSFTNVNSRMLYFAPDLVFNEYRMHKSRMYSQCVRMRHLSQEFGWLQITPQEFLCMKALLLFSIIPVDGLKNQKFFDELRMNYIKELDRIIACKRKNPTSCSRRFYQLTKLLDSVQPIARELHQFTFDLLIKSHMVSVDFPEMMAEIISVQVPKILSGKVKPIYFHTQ
It counts as functional.

The next test deals with T3, Progesterone receptor (Homo sapiens, UniProt P06401).
T3 sequence (P06401 whole entry): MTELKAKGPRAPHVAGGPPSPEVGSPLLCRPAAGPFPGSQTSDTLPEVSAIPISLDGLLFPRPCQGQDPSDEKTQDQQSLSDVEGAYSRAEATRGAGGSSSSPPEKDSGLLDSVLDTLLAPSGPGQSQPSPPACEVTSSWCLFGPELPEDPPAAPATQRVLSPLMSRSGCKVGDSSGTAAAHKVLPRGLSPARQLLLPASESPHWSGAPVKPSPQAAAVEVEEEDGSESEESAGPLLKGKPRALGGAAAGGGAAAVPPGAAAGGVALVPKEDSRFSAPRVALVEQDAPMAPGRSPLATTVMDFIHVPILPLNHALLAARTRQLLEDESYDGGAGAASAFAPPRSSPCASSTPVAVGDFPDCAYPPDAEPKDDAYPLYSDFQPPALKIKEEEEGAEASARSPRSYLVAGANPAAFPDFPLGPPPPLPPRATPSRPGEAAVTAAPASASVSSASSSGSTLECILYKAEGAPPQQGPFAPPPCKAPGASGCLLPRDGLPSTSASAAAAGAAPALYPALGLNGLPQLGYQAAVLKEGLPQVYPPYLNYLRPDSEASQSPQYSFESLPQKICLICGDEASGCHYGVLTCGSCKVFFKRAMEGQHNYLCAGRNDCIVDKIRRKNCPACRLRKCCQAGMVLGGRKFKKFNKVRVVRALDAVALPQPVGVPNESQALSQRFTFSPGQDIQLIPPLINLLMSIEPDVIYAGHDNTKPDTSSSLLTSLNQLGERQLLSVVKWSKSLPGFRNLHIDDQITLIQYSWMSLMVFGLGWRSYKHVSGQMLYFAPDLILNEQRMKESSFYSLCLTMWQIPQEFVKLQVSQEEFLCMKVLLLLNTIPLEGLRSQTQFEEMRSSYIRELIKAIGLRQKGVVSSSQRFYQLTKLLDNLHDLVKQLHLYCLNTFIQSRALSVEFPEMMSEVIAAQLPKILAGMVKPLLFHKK

Test [4] deals with T2, Androgen receptor. The test is classed as functional. This is another data set of the same source.
In another test the target is Histamine H1 receptor (Homo sapiens, UniProt P35367). The test is classed as functional, cell-based.
Sequence of Histamine H1 receptor (P35367 whole entry): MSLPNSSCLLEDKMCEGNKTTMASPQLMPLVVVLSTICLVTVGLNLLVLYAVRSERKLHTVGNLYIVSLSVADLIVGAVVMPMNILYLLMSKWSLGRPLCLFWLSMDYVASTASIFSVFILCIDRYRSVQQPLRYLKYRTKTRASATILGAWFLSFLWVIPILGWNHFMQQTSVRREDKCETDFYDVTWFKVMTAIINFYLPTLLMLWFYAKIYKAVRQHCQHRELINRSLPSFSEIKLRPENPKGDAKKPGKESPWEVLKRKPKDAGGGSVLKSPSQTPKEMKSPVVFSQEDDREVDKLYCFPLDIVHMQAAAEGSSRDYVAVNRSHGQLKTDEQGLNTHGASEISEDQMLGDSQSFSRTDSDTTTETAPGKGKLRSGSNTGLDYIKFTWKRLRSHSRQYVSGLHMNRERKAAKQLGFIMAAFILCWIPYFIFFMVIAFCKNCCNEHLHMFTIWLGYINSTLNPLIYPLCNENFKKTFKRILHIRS
A further test deals with D(1A) dopamine receptor (Homo sapiens, UniProt P21728).
Sequence of D(1A) dopamine receptor (P21728 whole entry): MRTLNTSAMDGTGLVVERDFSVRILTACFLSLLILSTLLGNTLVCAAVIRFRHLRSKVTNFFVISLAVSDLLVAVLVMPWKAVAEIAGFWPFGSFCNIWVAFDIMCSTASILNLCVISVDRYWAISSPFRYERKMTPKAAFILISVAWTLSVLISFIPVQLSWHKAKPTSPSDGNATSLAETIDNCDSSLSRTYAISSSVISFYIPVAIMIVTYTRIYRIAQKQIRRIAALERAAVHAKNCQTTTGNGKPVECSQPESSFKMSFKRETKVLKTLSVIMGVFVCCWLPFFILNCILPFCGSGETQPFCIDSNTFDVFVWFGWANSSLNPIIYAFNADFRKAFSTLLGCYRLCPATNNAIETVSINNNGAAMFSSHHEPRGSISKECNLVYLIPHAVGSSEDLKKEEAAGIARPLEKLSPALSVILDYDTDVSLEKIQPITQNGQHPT
Test [5] deals with Beta-3 adrenergic receptor (Homo sapiens, UniProt P13945).
Sequence of Beta-3 adrenergic receptor (P13945 whole entry): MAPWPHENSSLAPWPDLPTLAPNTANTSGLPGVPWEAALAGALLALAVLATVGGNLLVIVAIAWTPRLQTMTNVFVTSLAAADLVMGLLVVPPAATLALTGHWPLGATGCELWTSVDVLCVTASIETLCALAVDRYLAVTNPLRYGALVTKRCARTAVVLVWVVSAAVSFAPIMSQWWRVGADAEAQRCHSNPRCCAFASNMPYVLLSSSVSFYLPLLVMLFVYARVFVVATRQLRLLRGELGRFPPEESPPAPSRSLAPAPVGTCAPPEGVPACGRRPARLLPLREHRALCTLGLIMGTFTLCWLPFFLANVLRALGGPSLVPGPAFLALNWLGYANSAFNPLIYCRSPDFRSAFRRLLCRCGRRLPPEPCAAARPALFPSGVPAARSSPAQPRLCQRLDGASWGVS
The target of test [6] is T4, Alpha-2A adrenergic receptor (Homo sapiens, UniProt P08913).
T4 sequence (P08913 whole entry): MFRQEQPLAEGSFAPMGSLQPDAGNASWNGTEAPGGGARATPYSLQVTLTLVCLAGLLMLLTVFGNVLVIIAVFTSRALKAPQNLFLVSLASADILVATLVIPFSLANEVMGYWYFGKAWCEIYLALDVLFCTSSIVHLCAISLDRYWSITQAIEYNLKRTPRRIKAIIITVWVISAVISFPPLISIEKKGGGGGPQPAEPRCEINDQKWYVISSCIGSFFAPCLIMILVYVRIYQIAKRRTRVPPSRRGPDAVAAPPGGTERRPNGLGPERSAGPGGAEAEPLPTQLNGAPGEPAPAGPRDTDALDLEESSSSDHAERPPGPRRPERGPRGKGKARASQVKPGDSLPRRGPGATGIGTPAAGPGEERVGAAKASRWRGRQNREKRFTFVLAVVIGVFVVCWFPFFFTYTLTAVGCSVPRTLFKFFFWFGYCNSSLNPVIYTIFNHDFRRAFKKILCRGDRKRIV

Broadly, the AC50 is the concentration giving half of the maximal activity seen. The low end stands for greater potency, the high end for weaker potency.
Further: assay procedure not described here.

Sequence of 5-hydroxytryptamine receptor 2A (P28223 whole entry): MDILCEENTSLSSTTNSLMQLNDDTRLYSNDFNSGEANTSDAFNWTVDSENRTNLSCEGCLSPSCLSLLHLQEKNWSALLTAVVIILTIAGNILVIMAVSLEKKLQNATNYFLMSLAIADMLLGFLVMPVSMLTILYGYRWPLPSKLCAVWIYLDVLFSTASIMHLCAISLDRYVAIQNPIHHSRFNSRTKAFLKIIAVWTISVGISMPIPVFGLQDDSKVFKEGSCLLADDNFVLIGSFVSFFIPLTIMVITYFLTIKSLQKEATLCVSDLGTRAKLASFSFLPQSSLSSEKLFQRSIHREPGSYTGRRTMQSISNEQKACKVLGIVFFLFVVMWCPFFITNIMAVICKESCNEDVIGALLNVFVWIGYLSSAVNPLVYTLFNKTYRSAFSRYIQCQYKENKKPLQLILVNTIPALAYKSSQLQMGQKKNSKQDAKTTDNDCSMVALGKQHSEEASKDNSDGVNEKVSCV

Take `CC(=O)O[C@H]1CC[C@@]2(C)C(=CC[C@@H]3[C@@H]2CC[C@]2(C)C(c4cccnc4)=CC[C@@H]32)C1` [ABIRATERONE ACETATE]: the half-maximal activity concentration (AC50) in test [1] is over 10 µM; in test [2], over 10 µM; at Androgen receptor [3] it was over 30 µM; on Progesterone receptor it was 3.1 µM; on Androgen receptor [4] it was over 30 µM.

`NCC(=O)CCC(=O)O` [AMINOLEVULINIC ACID]: the AC50 at Histamine H1 receptor is over 30 µM.

For `COc1ccccc1OCCNCC(O)c1ccc(C)c(S(N)(=O)=O)c1` (stereo not drawn) [AMOSULALOL], the half-maximal activity concentration (AC50) in test [2] was 0.052 µM; at Androgen receptor [3], over 30 µM; on Androgen receptor [4] it was over 30 µM.

Take `CCCCc1ncc(/C=C(\Cc2cccs2)C(=O)O)n1Cc1ccc(C(=O)O)cc1` [EPROSARTAN]: the AC50 in test [1] is over 10 µM; in test [2], over 10 µM; on Histamine H1 receptor, over 30 µM; at Progesterone receptor, over 30 µM; on D(1A) dopamine receptor, over 10 µM; in [5], over 30 µM. This compound also yielded an AC50 in test [6] of over 10 µM.

On to `CC(C)OC(=O)CCC/C=C\C[C@@H]1[C@@H](CC[C@@H](O)CCc2ccccc2)[C@H](O)C[C@@H]1O` [LATANOPROST], for which the AC50 on Histamine H1 receptor, at Androgen receptor [3] and on Androgen receptor [4] was over 30 µM throughout.

In the case of `CC(Oc1c(Cl)cccc1Cl)C1=NCCN1` (stereo not drawn) [LOFEXIDINE], the AC50 in test [2] was 0.29 µM; on Androgen receptor [3] it was over 30 µM; at Androgen receptor [4], over 30 µM.

On to `CN1C(=O)C(O)N=C(c2ccccc2Cl)c2cc(Cl)ccc21` (stereo not drawn) [LORMETAZEPAM], for which the AC50 on Androgen receptor [3] and at Androgen receptor [4] was over 30 µM in each case.

Consider `CC(C)=CCC/C(C)=C/C=C/C(C)=C/C=C/C(C)=C/C=C/C=C(C)/C=C/C=C(C)/C=C/C=C(\C)CCC=C(C)C` [LYCOPENE], for which the AC50 is over 30 µM on Androgen receptor [3] and 24 µM on Androgen receptor [4].

As for `CCC1(CC)C(=O)NCC(C)C1=O` (stereo not drawn) [METHYPRYLON], the AC50 at Histamine H1 receptor and at Androgen receptor [3] was over 30 µM throughout.

Regarding `COc1ccc2c3c1O[C@H]1C(=O)CC[C@@]4(O)[C@@H](C2)N(C)CC[C@]314` [OXYCODONE], the AC50 at Androgen receptor [3] and at Androgen receptor [4] was over 30 µM throughout.

Consider `CC[C@@H]1C(=O)OC[C@@H]1Cc1cncn1C` [PILOCARPINE], for which the AC50 in test [1] is 4.72 µM; in test [2] it was over 10 µM; at Histamine H1 receptor it was over 30 µM; on Progesterone receptor it was over 30 µM; in test [6], over 10 µM.

Consider `Clc1ccc(CCCOCCCN2CCCCC2)cc1` [PITOLISANT], for which the AC50 at Androgen receptor [3] and on Androgen receptor [4] was over 30 µM throughout.

Turning to `CN1CCC(=C2c3ccccc3CCc3sccc32)CC1` [PIZOTYLINE], the AC50 in test [1] is 0.0002 µM; in test [2] it was 0.338 µM; on Histamine H1 receptor, over 30 µM; in [6], 0.577 µM.

In the case of `Cc1ccc(-n2nccn2)c(C(=O)N2CCN(c3nc4cc(Cl)ccc4o3)CC[C@H]2C)c1` [SUVOREXANT], the AC50 on Androgen receptor [3] and on Androgen receptor [4] was over 30 µM throughout.

`CCN(CC)C(=O)N[C@H]1C[C@@H]2c3cccc4[nH]cc(c34)C[C@H]2N(C)C1` [TERGURIDE]: the half-maximal activity concentration (AC50) was over 30 µM at Histamine H1 receptor, over 30 µM on Androgen receptor [3], 0.41 µM at D(1A) dopamine receptor and over 30 µM on Androgen receptor [4].

For the compound `O=C(NCCNCC(O)COc1ccc(O)cc1)N1CCOCC1` (stereo not drawn) [XAMOTEROL], the AC50 at Histamine H1 receptor is over 30 µM.
